Results taken from the kinase profiling compilation of Christmann-Franck et al. (2016).
Where “and” joins values, the source holds several entries; their conditions need not be identical. Equal entries are not always repeated.

Columns and labels:
Assay in all cases: radiometric filter-binding kinase assay, Kinase HotSpot
Conditions in all cases: compound 0.5 µM; ATP 10 µM
ADRBK1 (human) = ADRBK1 (human) (UniProt P25098)
AXL (human) = AXL (human) (UniProt P30530)
BMX (human) = BMX (human) (UniProt P51813)
BRSK1 (human) = BRSK1 (human) (UniProt Q8TDC3)
CAMKK2 (human) = CAMKK2 (human) (UniProt Q96RR4)
CDK2 CCNE1 (human) = CDK2 CCNE1 (human) (UniProt P24941+P24864)
CDK6 CCND1 (human) = CDK6 CCND1 (human) (UniProt Q00534+P24385)
CSNK1D (human) = CSNK1D (human) (UniProt P48730)
DCLK2 (human) = DCLK2 (human) (UniProt Q8N568)
DMPK (human) = DMPK (human) (UniProt Q09013)
EGFR (human) = EGFR (human) (UniProt P00533)
EPHA1 (human) = EPHA1 (human) (UniProt P21709)
EPHA7 (human) = EPHA7 (human) (UniProt Q15375)
FYN (human) = FYN (human) (UniProt P06241)
GRK6 (human) = GRK6 (human) (UniProt P43250)
GSG2 (human) = GSG2 (human) (UniProt Q8TF76)
Sequence of GSG2 (human) (Q8TF76 whole entry, looked up): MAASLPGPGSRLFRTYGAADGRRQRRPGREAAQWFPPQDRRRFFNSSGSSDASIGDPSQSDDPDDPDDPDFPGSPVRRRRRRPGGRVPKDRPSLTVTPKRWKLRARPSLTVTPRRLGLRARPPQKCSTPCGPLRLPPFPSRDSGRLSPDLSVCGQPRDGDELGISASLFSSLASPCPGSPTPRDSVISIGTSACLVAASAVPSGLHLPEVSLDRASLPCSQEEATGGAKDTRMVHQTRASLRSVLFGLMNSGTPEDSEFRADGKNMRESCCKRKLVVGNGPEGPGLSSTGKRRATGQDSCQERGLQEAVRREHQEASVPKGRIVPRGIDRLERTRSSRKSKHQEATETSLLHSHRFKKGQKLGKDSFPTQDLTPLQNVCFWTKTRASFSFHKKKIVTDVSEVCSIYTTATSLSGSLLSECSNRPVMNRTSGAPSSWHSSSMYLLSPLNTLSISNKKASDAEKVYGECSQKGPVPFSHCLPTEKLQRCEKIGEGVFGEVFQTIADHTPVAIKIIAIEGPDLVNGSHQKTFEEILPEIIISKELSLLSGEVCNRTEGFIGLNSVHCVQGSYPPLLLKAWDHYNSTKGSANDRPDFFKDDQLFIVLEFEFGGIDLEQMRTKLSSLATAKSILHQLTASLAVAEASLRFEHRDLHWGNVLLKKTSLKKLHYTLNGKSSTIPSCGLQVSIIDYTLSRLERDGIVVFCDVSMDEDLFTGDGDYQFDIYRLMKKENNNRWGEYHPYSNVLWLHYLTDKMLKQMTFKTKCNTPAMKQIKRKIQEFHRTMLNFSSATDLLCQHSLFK

IRAK1 (human) = IRAK1 (human) (UniProt P51617)
Sequence of IRAK1 (human) (P51617 whole entry, looked up): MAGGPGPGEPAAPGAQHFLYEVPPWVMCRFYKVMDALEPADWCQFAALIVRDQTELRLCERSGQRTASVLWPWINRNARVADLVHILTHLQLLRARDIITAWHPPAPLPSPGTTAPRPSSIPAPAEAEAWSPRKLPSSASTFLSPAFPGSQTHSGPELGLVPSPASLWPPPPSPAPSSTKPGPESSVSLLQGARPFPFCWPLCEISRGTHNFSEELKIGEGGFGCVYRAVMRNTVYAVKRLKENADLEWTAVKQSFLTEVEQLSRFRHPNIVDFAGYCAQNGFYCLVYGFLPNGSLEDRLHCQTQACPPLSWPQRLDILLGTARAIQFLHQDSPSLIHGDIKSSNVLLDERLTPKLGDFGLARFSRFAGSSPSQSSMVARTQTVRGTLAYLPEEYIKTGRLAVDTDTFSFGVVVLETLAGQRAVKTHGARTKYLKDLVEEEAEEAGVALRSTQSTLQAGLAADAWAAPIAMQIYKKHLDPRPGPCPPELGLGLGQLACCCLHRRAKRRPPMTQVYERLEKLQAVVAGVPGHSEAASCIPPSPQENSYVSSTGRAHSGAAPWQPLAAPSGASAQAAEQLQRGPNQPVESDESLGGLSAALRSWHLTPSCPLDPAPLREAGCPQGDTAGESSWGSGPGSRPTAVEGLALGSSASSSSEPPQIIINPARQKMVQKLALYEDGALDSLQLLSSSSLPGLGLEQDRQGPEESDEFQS

LYN (human) = LYN (human) (UniProt P07948)
MAP2K2 (human) = MAP2K2 (human) (UniProt P36507)
MAP3K2 (human) = MAP3K2 (human) (UniProt Q9Y2U5)
Sequence of MAP3K2 (human) (Q9Y2U5 whole entry, looked up): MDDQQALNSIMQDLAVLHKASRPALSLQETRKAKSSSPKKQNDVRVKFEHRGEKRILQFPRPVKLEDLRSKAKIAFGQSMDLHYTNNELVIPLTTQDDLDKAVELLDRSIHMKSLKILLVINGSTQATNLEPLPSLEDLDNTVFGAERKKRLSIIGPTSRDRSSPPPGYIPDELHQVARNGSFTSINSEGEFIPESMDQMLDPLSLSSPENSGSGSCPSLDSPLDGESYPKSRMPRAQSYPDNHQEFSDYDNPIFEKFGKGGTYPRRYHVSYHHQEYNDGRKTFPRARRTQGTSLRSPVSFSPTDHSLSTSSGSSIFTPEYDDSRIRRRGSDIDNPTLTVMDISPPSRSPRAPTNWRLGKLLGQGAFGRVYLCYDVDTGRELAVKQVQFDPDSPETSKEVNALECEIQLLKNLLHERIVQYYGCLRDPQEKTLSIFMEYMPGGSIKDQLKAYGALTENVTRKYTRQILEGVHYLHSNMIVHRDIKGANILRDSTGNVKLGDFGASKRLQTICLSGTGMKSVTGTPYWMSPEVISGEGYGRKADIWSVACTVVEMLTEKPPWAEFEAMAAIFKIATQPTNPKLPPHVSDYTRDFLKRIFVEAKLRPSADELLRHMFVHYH

MAP4K4 (human) = MAP4K4 (human) (UniProt O95819)
MARK2 (human) = MARK2 (human) (UniProt Q7KZI7)
MARK3 (human) = MARK3 (human) (UniProt P27448)
NEK11 (human) = NEK11 (human) (UniProt Q8NG66)
NEK4 (human) = NEK4 (human) (UniProt P51957)
OXSR1 (human) = OXSR1 (human) (UniProt O95747)
PASK (human) = PASK (human) (UniProt Q96RG2)
PIM1 (human) = PIM1 (human) (UniProt P11309)
Sequence of PIM1 (human) (P11309 whole entry, looked up): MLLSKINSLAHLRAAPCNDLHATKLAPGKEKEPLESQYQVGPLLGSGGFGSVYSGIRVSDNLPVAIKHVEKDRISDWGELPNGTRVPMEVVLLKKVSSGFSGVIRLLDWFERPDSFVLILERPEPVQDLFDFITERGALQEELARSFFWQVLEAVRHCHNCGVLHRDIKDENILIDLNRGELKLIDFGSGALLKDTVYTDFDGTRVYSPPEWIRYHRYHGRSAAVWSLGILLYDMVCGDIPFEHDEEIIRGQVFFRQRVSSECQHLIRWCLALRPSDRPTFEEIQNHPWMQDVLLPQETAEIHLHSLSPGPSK

PRKCD (human) = PRKCD (human) (UniProt Q05655)
Sequence of PRKCD (human) (Q05655 whole entry, looked up): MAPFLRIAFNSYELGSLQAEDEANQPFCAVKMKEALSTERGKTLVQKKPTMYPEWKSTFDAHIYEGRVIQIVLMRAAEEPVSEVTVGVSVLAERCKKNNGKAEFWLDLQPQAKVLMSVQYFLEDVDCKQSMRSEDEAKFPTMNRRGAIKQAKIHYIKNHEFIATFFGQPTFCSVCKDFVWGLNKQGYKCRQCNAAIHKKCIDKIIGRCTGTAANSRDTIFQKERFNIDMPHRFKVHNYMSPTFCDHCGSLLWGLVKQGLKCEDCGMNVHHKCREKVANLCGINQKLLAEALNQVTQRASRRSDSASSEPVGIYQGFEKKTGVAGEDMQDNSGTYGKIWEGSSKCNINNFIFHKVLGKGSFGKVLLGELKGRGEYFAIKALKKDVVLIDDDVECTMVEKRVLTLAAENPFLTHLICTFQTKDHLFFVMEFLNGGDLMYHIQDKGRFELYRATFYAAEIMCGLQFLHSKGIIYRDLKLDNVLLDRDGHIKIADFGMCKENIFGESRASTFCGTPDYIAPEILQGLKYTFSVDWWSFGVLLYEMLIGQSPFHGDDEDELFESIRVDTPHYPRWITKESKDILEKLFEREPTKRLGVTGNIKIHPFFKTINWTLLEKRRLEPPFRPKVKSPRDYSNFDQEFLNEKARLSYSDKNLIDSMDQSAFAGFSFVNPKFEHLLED

PRKCH (human) = PRKCH (human) (UniProt P24723)
PRKCI (human) = PRKCI (human) (UniProt P41743)
PRKG1 (human) = PRKG1 (human) (UniProt Q13976)
RAF1 (human) = RAF1 (human) (UniProt P04049)
STK16 (human) = STK16 (human) (UniProt O75716)
Sequence of STK16 (human) (O75716 whole entry, looked up): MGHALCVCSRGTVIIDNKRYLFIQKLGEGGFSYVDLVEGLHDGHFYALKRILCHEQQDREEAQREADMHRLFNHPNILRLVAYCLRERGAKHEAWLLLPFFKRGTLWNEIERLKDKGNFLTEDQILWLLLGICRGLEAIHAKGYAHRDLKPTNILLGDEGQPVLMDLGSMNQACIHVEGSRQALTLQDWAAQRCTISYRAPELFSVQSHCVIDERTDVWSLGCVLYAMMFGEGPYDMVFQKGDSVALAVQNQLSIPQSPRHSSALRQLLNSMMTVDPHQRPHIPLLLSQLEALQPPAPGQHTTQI

STK17A (human) = STK17A (human) (UniProt Q9UEE5)
STK33 (human) = STK33 (human) (UniProt Q9BYT3)
Sequence of STK33 (human) (Q9BYT3 whole entry, looked up): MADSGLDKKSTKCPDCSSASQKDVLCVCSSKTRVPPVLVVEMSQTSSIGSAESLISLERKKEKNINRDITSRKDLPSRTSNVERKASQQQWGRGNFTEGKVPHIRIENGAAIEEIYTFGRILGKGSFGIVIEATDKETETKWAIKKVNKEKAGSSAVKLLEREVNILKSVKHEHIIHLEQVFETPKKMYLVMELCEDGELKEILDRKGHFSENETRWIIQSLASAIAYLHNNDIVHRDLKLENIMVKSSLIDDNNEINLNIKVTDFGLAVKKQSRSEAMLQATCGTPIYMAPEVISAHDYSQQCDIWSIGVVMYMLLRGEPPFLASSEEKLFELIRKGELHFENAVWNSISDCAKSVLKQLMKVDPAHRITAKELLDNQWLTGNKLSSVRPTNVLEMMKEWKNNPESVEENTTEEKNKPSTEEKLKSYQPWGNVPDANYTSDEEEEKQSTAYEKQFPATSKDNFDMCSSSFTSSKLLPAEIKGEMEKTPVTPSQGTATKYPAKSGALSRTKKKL

SYK (human) = SYK (human) (UniProt P43405)
TAOK2 (human) = TAOK2 (human) (UniProt Q9UL54)
TSSK1B (human) = TSSK1B (human) (UniProt Q9BXA7)
Sequence of TSSK1B (human) (Q9BXA7 whole entry, looked up): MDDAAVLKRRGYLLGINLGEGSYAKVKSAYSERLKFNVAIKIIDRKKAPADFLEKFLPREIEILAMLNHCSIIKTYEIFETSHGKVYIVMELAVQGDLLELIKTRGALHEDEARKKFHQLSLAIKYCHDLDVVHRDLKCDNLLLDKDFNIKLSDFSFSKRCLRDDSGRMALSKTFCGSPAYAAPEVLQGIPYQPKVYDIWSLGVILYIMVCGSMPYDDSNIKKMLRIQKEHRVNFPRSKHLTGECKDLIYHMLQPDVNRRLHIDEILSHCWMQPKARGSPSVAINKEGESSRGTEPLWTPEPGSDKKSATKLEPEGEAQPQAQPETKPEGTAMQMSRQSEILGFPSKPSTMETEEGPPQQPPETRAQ

TSSK2 (human) = TSSK2 (human) (UniProt Q96PF2)
ZAP70 (human) = ZAP70 (human) (UniProt P43403)
Sequence of ZAP70 (human) (P43403 whole entry, looked up): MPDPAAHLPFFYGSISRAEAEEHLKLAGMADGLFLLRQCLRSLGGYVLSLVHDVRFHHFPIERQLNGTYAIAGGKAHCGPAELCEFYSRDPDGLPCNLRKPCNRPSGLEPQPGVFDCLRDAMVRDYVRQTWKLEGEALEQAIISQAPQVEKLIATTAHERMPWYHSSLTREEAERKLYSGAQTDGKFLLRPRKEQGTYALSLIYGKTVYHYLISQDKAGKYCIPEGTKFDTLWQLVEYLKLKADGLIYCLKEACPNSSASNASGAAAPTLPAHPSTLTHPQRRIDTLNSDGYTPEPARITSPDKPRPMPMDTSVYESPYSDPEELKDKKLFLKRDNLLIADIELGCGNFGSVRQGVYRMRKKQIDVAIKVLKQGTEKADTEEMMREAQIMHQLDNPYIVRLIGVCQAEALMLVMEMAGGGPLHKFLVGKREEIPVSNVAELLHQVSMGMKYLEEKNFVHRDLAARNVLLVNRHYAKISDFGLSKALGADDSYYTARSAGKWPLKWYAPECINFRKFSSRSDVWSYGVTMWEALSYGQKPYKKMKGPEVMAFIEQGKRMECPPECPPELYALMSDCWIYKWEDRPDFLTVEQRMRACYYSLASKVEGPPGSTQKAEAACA

MAP3K7 TAB1 (human) = MAP3K7 TAB1 (human) (UniProt O43318+Q15750)

Compound: O=C1Nc2ccccc2/C1=C1\Nc2ccccc2\C1=N/O
- residual activity (ADRBK1 (human)): 89.5%
- residual activity (AXL (human)): 82.3%
- residual activity (BMX (human)): 80.1%
- residual activity (BRSK1 (human)): 23.4%
- residual activity (CAMKK2 (human)): 66.8%
- residual activity (CDK2 CCNE1 (human)): 31.3%
- residual activity (CDK6 CCND1 (human)): 52.8%
- residual activity (CSNK1D (human)): 39.3%
- residual activity (DCLK2 (human)): 88.5%
- residual activity (DMPK (human)): 101%
- residual activity (EGFR (human)): 97.1%
- residual activity (EPHA1 (human)): 99.4%
- residual activity (EPHA7 (human)): 89.3%
- residual activity (FYN (human)): 43.3%
- residual activity (GRK6 (human)): 89.4%
- residual activity (GSG2 (human)): 65.6%
- residual activity (IRAK1 (human)): 68.8%
- residual activity (LYN (human)): 64.6% and 79.6%
- residual activity (MAP2K2 (human)): 100%
- residual activity (MAP3K2 (human)): 94.6%
- residual activity (MAP4K4 (human)): 42%
- residual activity (MARK2 (human)): 78.4%
- residual activity (MARK3 (human)): 85.8%
- residual activity (NEK11 (human)): 98.2%
- residual activity (NEK4 (human)): 95%
- residual activity (OXSR1 (human)): 91.7%
- residual activity (PASK (human)): 94.1%
- residual activity (PIM1 (human)): 85.2%
- residual activity (PRKCD (human)): 95%
- residual activity (PRKCH (human)): 74.4%
- residual activity (PRKCI (human)): 92.2%
- residual activity (PRKG1 (human)): 86% and 90.1%
- residual activity (RAF1 (human)): 99.3%
- residual activity (STK16 (human)): 54.8%
- residual activity (STK17A (human)): 46%
- residual activity (STK33 (human)): 44.1%
- residual activity (SYK (human)): 58.5%
- residual activity (TAOK2 (human)): 96.3%
- residual activity (TSSK1B (human)): 86%
- residual activity (TSSK2 (human)): 97.7%
- residual activity (ZAP70 (human)): 95.6%

Compound: CCn1cnc2c(Nc3cccc(Cl)c3)nc(N[C@@H]3CCCC[C@@H]3N)nc21
- residual activity (ADRBK1 (human)): 96.5%
- residual activity (AXL (human)): 98.7%
- residual activity (BMX (human)): 90.7%
- residual activity (BRSK1 (human)): 92.4%
- residual activity (CAMKK2 (human)): 86.1%
- residual activity (CDK2 CCNE1 (human)): 16.8%
- residual activity (CDK6 CCND1 (human)): 60.9%
- residual activity (CSNK1D (human)): 97.8%
- residual activity (DCLK2 (human)): 93.1%
- residual activity (DMPK (human)): 99.7%
- residual activity (EGFR (human)): 98.1%
- residual activity (EPHA1 (human)): 79.6%
- residual activity (EPHA7 (human)): 87.6%
- residual activity (FYN (human)): 48.6%
- residual activity (GRK6 (human)): 99.6%
- residual activity (GSG2 (human)): 90.4%
- residual activity (IRAK1 (human)): 81.7%
- residual activity (MAP2K2 (human)): 107%
- residual activity (MAP3K2 (human)): 91.7%
- residual activity (MAP3K7 TAB1 (human)): 98.9%
- residual activity (MAP4K4 (human)): 72.5%
- residual activity (MARK2 (human)): 90.1%
- residual activity (MARK3 (human)): 98.7%
- residual activity (NEK11 (human)): 101%
- residual activity (NEK4 (human)): 96.8%
- residual activity (OXSR1 (human)): 92.3%
- residual activity (PASK (human)): 88%
- residual activity (PIM1 (human)): 83.8%
- residual activity (PRKCD (human)): 91.2%
- residual activity (PRKCH (human)): 77.6%
- residual activity (PRKCI (human)): 99.7%
- residual activity (PRKG1 (human)): 91.4% and 91.8%
- residual activity (RAF1 (human)): 92.8%
- residual activity (STK16 (human)): 101%
- residual activity (STK17A (human)): 98.4%
- residual activity (STK33 (human)): 88.9%
- residual activity (SYK (human)): 98.4%
- residual activity (TAOK2 (human)): 101%
- residual activity (TSSK1B (human)): 87.4%
- residual activity (TSSK2 (human)): 109%
- residual activity (ZAP70 (human)): 106%

Compound: O=C1NC(=O)C(c2cn(CCCO)c3ncccc23)=C1c1cnccn1
- residual activity (ADRBK1 (human)): 114%
- residual activity (AXL (human)): 104%
- residual activity (BMX (human)): 97.8%
- residual activity (BRSK1 (human)): 89.2%
- residual activity (CAMKK2 (human)): 115%
- residual activity (CDK2 CCNE1 (human)): 85.1%
- residual activity (CDK6 CCND1 (human)): 83.4%
- residual activity (CSNK1D (human)): 99.4%
- residual activity (DCLK2 (human)): 90.1%
- residual activity (DMPK (human)): 99.6%
- residual activity (EGFR (human)): 95.9%
- residual activity (EPHA1 (human)): 73.9%
- residual activity (EPHA7 (human)): 105%
- residual activity (FYN (human)): 107%
- residual activity (GRK6 (human)): 102%
- residual activity (GSG2 (human)): 91.9%
- residual activity (IRAK1 (human)): 76.6%
- residual activity (LYN (human)): 101% and 112%
- residual activity (MAP2K2 (human)): 90.3%
- residual activity (MAP3K2 (human)): 96.9%
- residual activity (MAP3K7 TAB1 (human)): 95.5%
- residual activity (MAP4K4 (human)): 36.4%
- residual activity (MARK2 (human)): 97.5%
- residual activity (MARK3 (human)): 87.8%
- residual activity (NEK11 (human)): 108%
- residual activity (NEK4 (human)): 85.1%
- residual activity (OXSR1 (human)): 101%
- residual activity (PASK (human)): 97.1%
- residual activity (PIM1 (human)): 43.9%
- residual activity (PRKCD (human)): 97%
- residual activity (PRKCH (human)): 81.6%
- residual activity (PRKCI (human)): 87%
- residual activity (RAF1 (human)): 100%
- residual activity (STK16 (human)): 90.3%
- residual activity (STK17A (human)): 93.6%
- residual activity (STK33 (human)): 82.8%
- residual activity (SYK (human)): 60%
- residual activity (TAOK2 (human)): 88.1%
- residual activity (TSSK1B (human)): 94.9%
- residual activity (TSSK2 (human)): 119%
- residual activity (ZAP70 (human)): 87.8%

Compound: CCN(CC)CCCCN1c2ccccc2Oc2ccc(Cl)cc21
- residual activity (ADRBK1 (human)): 96.5%
- residual activity (AXL (human)): 95.2%
- residual activity (BMX (human)): 104%
- residual activity (BRSK1 (human)): 98.3%
- residual activity (CAMKK2 (human)): 105%
- residual activity (CDK2 CCNE1 (human)): 89.4%
- residual activity (CDK6 CCND1 (human)): 98%
- residual activity (CSNK1D (human)): 105%
- residual activity (DCLK2 (human)): 101%
- residual activity (DMPK (human)): 99.2%
- residual activity (EGFR (human)): 99.2%
- residual activity (EPHA1 (human)): 90.5%
- residual activity (EPHA7 (human)): 102%
- residual activity (FYN (human)): 107%
- residual activity (GRK6 (human)): 88.4%
- residual activity (GSG2 (human)): 104%
- residual activity (IRAK1 (human)): 118%
- residual activity (LYN (human)): 105% and 115%
- residual activity (MAP2K2 (human)): 88.4%
- residual activity (MAP3K2 (human)): 88.2%
- residual activity (MAP3K7 TAB1 (human)): 102%
- residual activity (MAP4K4 (human)): 104%
- residual activity (MARK2 (human)): 86.1%
- residual activity (MARK3 (human)): 102%
- residual activity (NEK11 (human)): 92%
- residual activity (NEK4 (human)): 110%
- residual activity (OXSR1 (human)): 89.8%
- residual activity (PASK (human)): 76.6%
- residual activity (PRKCD (human)): 95.4%
- residual activity (PRKCH (human)): 108%
- residual activity (PRKCI (human)): 105%
- residual activity (PRKG1 (human)): 91.3% and 98.8%
- residual activity (RAF1 (human)): 105%
- residual activity (STK16 (human)): 95.2%
- residual activity (STK17A (human)): 96.1%
- residual activity (STK33 (human)): 89.9%
- residual activity (SYK (human)): 97.6%
- residual activity (TAOK2 (human)): 95.3%
- residual activity (TSSK1B (human)): 96.7%
- residual activity (TSSK2 (human)): 103%
- residual activity (ZAP70 (human)): 91.1%
